From US6331548A, “1-cycloalkyl-1,8-naphthyridin-4-one derivative as type IV phosphodiesterase inhibitor” (Suntory Limited, priority 1998, dated 2001)
pIC50: −log10 of the molar value.

How the values were obtained:
[1] = test system: TNF-α production by LPS stimulated macrophages; test: TNF-α production inhibitory activity by LPS stimulated macrophages; format: cell-based; details: Macrophage, BALB/c mouse peritoneal macrophages, cultured for 8 hours, ELISA
Experimental: The following assay was used to evaluate the ability of the compound of the present invention to suppress TNF-α production by LPS stimulated macrophages according to Immunopharmacol. 29, 121-127 (1995).
1) 6 to 10 week old female BALB/c mice were used, 2 ml portions of thioglycolate were intraperitoneally administered, and the abdominal cavities were washed by 10 ml of PBS after 4 days, whereby 1 to 2×10^7 peritoneal cells were obtained per mouse. These were suspended in a hemocyte solution (0.75% ammonium chloride, 17 mM tris-hydrochlorate buffer, pH7.2), centrifuged, then resuspended in an RPMI1640 medium including 10% fetal calf serum and seeded in a 96-well cell culture plate at a density of 1×10^5 cells/50 μl/well. Since these cells adhered strongly to the tissue culture plate and were positive in nonspecific esterase staining, they were used for the test as mouse peritoneal macrophages. Mouse peritoneal macrophages were precultured overnight at 37° C. in […] for the experiment.
2) E. Coli (serum type 055:B5) derived LPS was dissolved in PBS in a concentration of 1 mg/ml, then sterilized by filtration. The test compound was dissolved in DMSO to make a 1000-fold concentration solution of the final concentration of use. 10 μl of the above LPS stock solution (final concentration 10 μg/ml) and 1 μl of the tested substance stock solution were added and mixed in 0.5 ml of RPMI1640 medium containing 10% fetal calf serum. This was added to the above cells at 50 μl/well and cultured for 8 hours. The cultured supernatant was recovered from each well and the TNF-α concentration was measured by the ELISA method (Cytoscreen® Immunoassay Kit Mouse TNF-α, BioSourse International).
The comparative example was the compound described in WO-A-97-04775, Example 1, mentioned above.

[2] = molecular target: type IV phosphodiesterase; test: Type IV phosphodiesterase inhibiting activity; format: biochemical, human; details: U937 type IV phosphodiesterase fraction, 0.28 μM cAMP, pH 7.5, 30° C., 30 minutes; read-out: PDEIV-IC50
Experimental: The following assay was used to evaluate the ability of the compound of the present invention to suppress type IV phosphodiesterase, according to Biochemical. Pharmacol. 48 (6), 1219-1223 (1994).
1) Type IV phosphodiesterase activity fractions were prepared as follows. Namely, human histiocytic lymphoma cell line U937 was cultured in an RPMI1640 medium containing 10% fetal calf serum to obtain 10^9 cells of U937. The cells were recovered by centrifugation and suspended in 40 ml of buffer A (20 mM bis-tris, 5 mM 2-mercaptoethanol, 2 mM benzamidine, 2 mM EDTA, 0.1 mM 4-(2-aminoethyl)benzensulfonyl hydrochloride, 50 mM sodium acetate, pH=6.5). The cells were broken by a sonication and centrifuged (4° C., 10,000 G, 10 minutes) to obtain a supernatant. This was filtered by a 0.45 μm filter to obtain the soluble fraction.
2) The soluble fraction obtained was applied into a 1×10 cm DEAE Sepharose column equalibrated with the buffer A. 120 ml of the buffer A containing a linear gradient solution of 0.05 to 1M sodium acetate was used to separate the phosphodiesterase and recover 24 5-ml fractions. Each of the fractions was measured for the cAMP phosphodiesterase activity.
3) The test compound was reacted at a desired concentration in a reaction mixture containing 20 mM tris-HCl (pH 7.5), 1 mM MgCl2, 100 μM EDTA, 330 μg/ml calf serum albumin, 10 μg/ml 5'-nucleotidase, 0.4 μCi ^3 H-cAMP (0.28 μM cAMP) and the type IV phosphodiesterase stored solution at 30° C. for 30 minutes. QAE-Sephadex suspended in 10 mM of hepes-Na (pH -7.0) was added to the reaction mixture which was then allowed to stand for 5 minutes, then the supernatant was obtained, QAE-Sephadex was further added, to the supernatant, and was allowed to stand for 5 minutes, then the supernatant was obtained and measured for radioactivity.

mice = test: Toxicity: death on intraperitoneal administration to mice for 5 weeks; format: in vivo; details: 10 mg/kg per day intraperitoneally for 5 weeks
Excerpt: Further, the compounds of the present invention are low in toxicity, and these compounds are expected to be high in safety.

Structure (SMILES) | pIC50 [1] | pIC50 [2] | death (mice)
O=C(Nc1c(Cl)cncc1Cl)c1cn([C@H]2CCN(C(=O)OCc3ccccc3)C2)c2ncccc2c1=O [Example 10, (S)-N-(3,5-dichloropyridin-4-yl)-1-(1-benzyloxycarbonylpyrrolidin-3-yl)-1,4-dihydro[1,8]naphthyridin-4-one-3-carboxamide] | 8.00 | 8.82 | no death
COC(=O)N1CC[C@H](n2cc(C(=O)Nc3c(Cl)cncc3Cl)c(=O)c3cccnc32)C1 [Example 11, (S)-N-(3,5-dichloropyridin-4-yl)-1-(1-methoxycarbonylpyrrolidin-3-yl)-1,4-dihydro[1,8]naphthyridin-4-one-3-carboxamide] | 8.40 | 8.77 | no death
O=C(Nc1c(Cl)cncc1Cl)c1cn(C2CCN(C(=O)OCc3ccccc3)CC2)c2ncccc2c1=O [Example 25, N-(3,5-dichloropyridin-4-yl)-1-(1-benzyloxycarbonylpiperidin-4-yl)-1,4-dihydro[1,8]naphthylidin-4-one-3-carboxamide] | 9.40 | 9.05 | no death
COC(=O)N1CCC(n2cc(C(=O)Nc3c(Cl)cncc3Cl)c(=O)c3cccnc32)CC1 [Example 26, N-(3,5-dichloropyridin-4-yl)-1-(1-methoxycarbonylpiperidin-4-yl)-1,4-dihydro[1,8]naphthylidin-4-one-3-carboxamide] | 9.70 | 9.05 | no death
COC(=O)N1CC(n2cc(C(=O)Nc3c(Cl)cncc3Cl)c(=O)c3cccnc32)C1 [Example 34, N-(3,5-dichloropyridin-4-yl)-1-(1-methoxycarbonylazetidin-3-yl)-1,4-dihydro[1,8]naphthylidin-4-one-3-carboxamide] | 7.10 | 7.62 | no death
CN1CCN(n2cc(C(=O)Nc3c(Cl)cncc3Cl)c(=O)c3cccnc32)CC1 [Example 55, N-(3,5-dichloropyridin-4-yl)-1-(4-methylpiperazine-1-yl)-1,4-dihydro[1,8]naphthylidin-4-one-3-carboxamide] | 8.00 | 8.17 | 
COC(=O)N1CCN(n2cc(C(=O)Nc3c(Cl)cncc3Cl)c(=O)c3cccnc32)CC1 [Example 56, N-(3,5-dichloropyridin-4-yl)-1-(4-methoxycarbonylpiperazin-1-yl)-1,4-dihydro[1,8]naphthylidin-4-one-3-carboxamide] | 7.82 | 8.80 | no death
O=C(Nc1c(Cl)cncc1Cl)c1cn([C@H]2C[C@H]3COC(=O)N3C2)c2ncccc2c1=O [Example 86, N-(3,5-dichloropyridine-4-yl)-1-[(5S,7S)-1-aza-3-oxabicyclo[3,3,0]octan-2-one-7-yl]-1,4-dihydro[1,8]naphthylidin-4-one-3-carboxamide] | 5.52 | 6.85 | 
CN(C)C(=O)[C@@H]1C[C@H](n2cc(C(=O)Nc3c(Cl)cncc3Cl)c(=O)c3cccnc32)CN1C(=O)OCc1ccccc1 [Example 92, N-(3,5-dichloropyridin-4-yl)-1-[(3S,5S)-(1-benzyloxycarbonyl-5-dimethylaminocarbonyl)pyrrolidin-3-yl]-1,4-dihydro[1,8]naphthylidin-4-one-3-carboxamide] | 7.15 | 8.68 | 
CN(C)C(=O)[C@@H]1C[C@H](n2cc(C(=O)Nc3c(Cl)cncc3Cl)c(=O)c3cccnc32)CN1 [Example 93, N-(3,5-dichloropyridin-4-yl)-1-[(3S,5S)-(5-dimethylaminocarbonyl)pyrrolidin-3-yl]-1,4-dihydro[1,8]naphthylidin-4-one-3-carboxamide] | 5.70 | 7.16 | 
O=C(Nc1ccncc1)c1cn(C2CCSCC2)c2ncccc2c1=O [Example 100, N-(4-pyridyl)-1-(4-tetrahydrothiopyranyl)-1,4-dihydro[1,8]naphthylidin-4-one-3-carboxamide] | 7.15 | 7.37 | 
O=C(Nc1c(Cl)cncc1Cl)c1cn(C2CCSCC2)c2ncccc2c1=O [Example 101, N-(3,5-dichloropyridin-4-yl)-1-(4-tetrahydrothiopyranyl)-1,4-dihydro[1,8]naphthylidin-4-one-3-carboxamide] | 8.52 | 9.40 | 
O=C(Nc1c(Cl)cncc1Cl)c1cn(C2CCS(=O)(=O)CC2)c2ncccc2c1=O [Example 102 (Sulfon), N-(3,5-dichloropyridin-4-yl)-1-(1,1-dioxotetrahydrothiopyran-4-yl)-1,4-dihydro[1,8]naphthylidin-4-one-3-carboxamide] | 6.70 | 7.80 | 
O=C(Nc1c(Cl)cncc1Cl)c1cn(C2CC[S+]([O-])CC2)c2ncccc2c1=O (centres unmarked) [Example 102 (Sulfoxide), N-(3,5-dichloropyridin-4-yl)-1-(1-oxotetrahydrothiopyran-4-yl)-1,4-dihydro[1,8]naphthylidin-4-one-3-carboxamide] | 7.15 | 8.29 | 
O=C(Nc1ccncc1)c1cn(N2CCOCC2)c2ncccc2c1=O [Example 106, N-(4-pyridyl)-1-(1-morpholino)-1,4-dihydro[1,8]naphthylidin-4-one-3-carboxamide] | 7.05 | 6.85 | no death
O=C(Nc1c(Cl)cncc1Cl)c1cn(N2CCOCC2)c2ncccc2c1=O [Example 107, N-(3,5-dichloropyridin-4-yl)-1-(1-morpholino)-1,4-dihydro[1,8]naphthylidin-4-one-3-carboxamide] | 8.52 | 9.40 | 
O=C(Nc1ccncc1)c1cn([C@H]2CC[C@H](O)CC2)c2ncccc2c1=O [Example 113, N-(4-pyridyl)-1-(trans-4-hydroxycyclohexyl)-1,4-dihydro[1,8]naphthylidin-4-one-3-carboxamide] | 6.52 | 6.40 | 
O=C(Nc1c(Cl)cncc1Cl)c1cn([C@H]2CC[C@@H](O)CC2)c2ncccc2c1=O [Example 119, N-(3,5-dichloropyridin-4-yl)-1-(cis-4-hydroxycyclohexyl)-1,4-dihydro[1,8]naphthylidin-4-one-3-carboxamide] | 10.40 | 9.00 | 
O=C(Nc1ccncc1Cl)c1cn([C@H]2CC[C@H](O)CC2)c2ncccc2c1=O [Example 122, N-(3-chloropyridin-4-yl)-1-(trans-4-hydroxycyclohexyl)-1,4-dihydro[1,8]naphthylidin-4-one-3-carboxamide] | 5.92 | 6.70 | 
O=C1CCC(n2cc(C(=O)Nc3ccncc3Cl)c(=O)c3cccnc32)CC1 [Example 123, N-(3-chloropyridin-4-yl)-1-(4-oxocyclohexyl)-1,4-dihydro[1,8]naphthylidin-4-one-3-carboxamide] | 5.92 | 6.41 | 
CO[C@H]1CC[C@H](n2cc(C(=O)Nc3ccncc3)c(=O)c3cccnc32)CC1 [Example 126, N-(4-pyridyl)-1-(trans-4-methoxycyclohexyl)-1,4-dihydro[1,8]naphthylidin-4-one-3-carboxamide] | 5.74 | 6.14 | 
O=C(Nc1c(Cl)cncc1Cl)c1cn(C2CC2)c2ncccc2c1=O [Example 140, N-(3,5-dichloropyridin-4-yl)-1-cyclopropyl-1,4-dihydro[1,8]naphthylidin-4-one-3-carboxamide] | 8.00 | 8.60 | 
O=C(Nc1ccncc1)c1cn(C2CCCC2)c2ncccc2c1=O [Example 149, N-(4-pyridyl)-1-cyclopentyl-1,4-dihydro[1,8]naphthylidin-4-one-3-carboxamide] | 7.11 | 7.39 | 
